The nature of assay [1]: The stability against nucleases; Active.
Assay [2] has as its system Proteinase K (Tritirachium album). Nature of the assay: The stability against proteinase K; Active.

Active and inactive are the calls of the source. The rule behind the calls is not given here.

Regarding `Cc1cn(CC(=O)N2C[C@H](N)C[C@H]2C(=O)NC2C[C@@H](C(=O)N[C@@H]3C[C@@H](C(=O)NC4C[C@@H](C(=O)N[C@@H]5C[C@@H](C(=O)NC6C[C@@H](C(=O)N[C@@H]7C[C@@H](C(=O)NC8C[C@@H](C(=O)N[C@@H](C)C(=O)O)N(C(=O)Cn9cc(C)c(=O)[nH]c9=O)C8)N(C(=O)Cn8cc(C)c(=O)[nH]c8=O)C7)N(C(=O)Cn7cc(C)c(=O)[nH]c7=O)C6)N(C(=O)Cn6cc(C)c(=O)[nH]c6=O)C5)N(C(=O)Cn5cc(C)c(=O)[nH]c5=O)C4)N(C(=O)Cn4cc(C)c(=O)[nH]c4=O)C3)N(C(=O)Cn3cc(C)c(=O)[nH]c3=O)C2)c(=O)[nH]c1=O` (stereo partly drawn), the Stability entry in assay [1] and in assay [2] was “Active” throughout.
As for `Cc1cn([C@H]2C[C@@H](C(=O)NCC(=O)O)N(C(=O)CNC(=O)[C@@H]3C[C@H](n4cc(C)c(=O)[nH]c4=O)CN3C(=O)CNC(=O)[C@@H]3C[C@H](n4cc(C)c(=O)[nH]c4=O)CN3C(=O)CNC(=O)[C@@H]3C[C@H](n4cc(C)c(=O)[nH]c4=O)CN3C(=O)CNC(=O)[C@@H]3C[C@H](n4cc(C)c(=O)[nH]c4=O)CN3C(=O)CNC(=O)[C@@H]3C[C@H](n4cc(C)c(=O)[nH]c4=O)CN3C(=O)CNC(=O)[C@@H]3C[C@H](n4cc(C)c(=O)[nH]c4=O)CN3C(=O)CNC(=O)[C@@H]3C[C@H](n4cc(C)c(=O)[nH]c4=O)CN3C(=O)[C@@H](N)CCCCN)C2)c(=O)[nH]c1=O`, the Stability entry in assay [1] and in assay [2] was “Active” throughout.
As for `Cc1cn(CC(=O)N2C[C@@H](N)C[C@H]2C(=O)NC2C[C@@H](C(=O)N[C@H]3C[C@@H](C(=O)NC4C[C@@H](C(=O)N[C@H]5C[C@@H](C(=O)NC6C[C@@H](C(=O)N[C@H]7C[C@@H](C(=O)NC8C[C@@H](C(=O)N[C@@H](C)C(=O)O)N(C(=O)Cn9cc(C)c(=O)[nH]c9=O)C8)N(C(=O)Cn8cc(C)c(=O)[nH]c8=O)C7)N(C(=O)Cn7cc(C)c(=O)[nH]c7=O)C6)N(C(=O)Cn6cc(C)c(=O)[nH]c6=O)C5)N(C(=O)Cn5cc(C)c(=O)[nH]c5=O)C4)N(C(=O)Cn4cc(C)c(=O)[nH]c4=O)C3)N(C(=O)Cn3cc(C)c(=O)[nH]c3=O)C2)c(=O)[nH]c1=O` (stereo partly drawn), the Stability result in assay [1] and in assay [2] was “Active” each time.
Regarding `Cc1cn([C@@H]2C[C@@H](C(=O)NCC(=O)O)N(C(=O)CNC(=O)[C@@H]3C[C@@H](n4cc(C)c(=O)[nH]c4=O)CN3C(=O)CNC(=O)[C@@H]3C[C@@H](n4cc(C)c(=O)[nH]c4=O)CN3C(=O)CNC(=O)[C@@H]3C[C@@H](n4cc(C)c(=O)[nH]c4=O)CN3C(=O)CNC(=O)[C@@H]3C[C@@H](n4cc(C)c(=O)[nH]c4=O)CN3C(=O)CNC(=O)[C@@H]3C[C@@H](n4cc(C)c(=O)[nH]c4=O)CN3C(=O)CNC(=O)[C@@H]3C[C@@H](n4cc(C)c(=O)[nH]c4=O)CN3C(=O)CNC(=O)[C@@H]3C[C@@H](n4cc(C)c(=O)[nH]c4=O)CN3C(=O)[C@@H](N)CCCCN)C2)c(=O)[nH]c1=O`, the Stability result in assay [1] and in assay [2] was “Active” each time.

The record behind these values is ChEMBL document CHEMBL1151494, “Synthesis of new building blocks for peptide nucleic acids containing monomers with variations in the backbone” (Bioorg Med Chem Lett, 1997).
